From patent US9663464B2, “Carbazole derivatives acting on 5-HT7 receptor” (KOREA INSTITUTE OF SCIENCE AND TECHNOLOGY, priority 2015, dated 2017)
Structures can show the parent of a compound that is named as a salt.

Experiments:
[1] = target: 5-HT6 (Homo sapiens, UniProt P50406); test: 5-HT6 receptor inhibition/binding (Tables 2-3)
[2] = target: T1, 5-HT1A (Homo sapiens, UniProt P08908); test: 5-HT1A receptor inhibition (Table 3); format: binding
T1 sequence (P08908 1-422): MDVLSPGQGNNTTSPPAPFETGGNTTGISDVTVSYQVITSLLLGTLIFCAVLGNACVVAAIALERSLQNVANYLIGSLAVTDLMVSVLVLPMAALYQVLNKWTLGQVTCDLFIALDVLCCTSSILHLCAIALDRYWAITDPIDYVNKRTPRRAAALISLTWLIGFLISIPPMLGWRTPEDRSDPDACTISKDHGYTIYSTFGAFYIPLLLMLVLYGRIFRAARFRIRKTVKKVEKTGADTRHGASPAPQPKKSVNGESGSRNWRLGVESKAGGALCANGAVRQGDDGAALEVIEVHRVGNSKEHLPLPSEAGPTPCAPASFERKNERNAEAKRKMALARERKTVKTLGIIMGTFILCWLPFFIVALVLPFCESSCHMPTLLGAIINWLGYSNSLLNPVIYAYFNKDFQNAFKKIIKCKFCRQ

[3] = target: T2, 5-HT2C (Homo sapiens, UniProt P28335); test: 5-HT2C receptor inhibition/binding (Tables 1-3)
T2 sequence (P28335 33-458): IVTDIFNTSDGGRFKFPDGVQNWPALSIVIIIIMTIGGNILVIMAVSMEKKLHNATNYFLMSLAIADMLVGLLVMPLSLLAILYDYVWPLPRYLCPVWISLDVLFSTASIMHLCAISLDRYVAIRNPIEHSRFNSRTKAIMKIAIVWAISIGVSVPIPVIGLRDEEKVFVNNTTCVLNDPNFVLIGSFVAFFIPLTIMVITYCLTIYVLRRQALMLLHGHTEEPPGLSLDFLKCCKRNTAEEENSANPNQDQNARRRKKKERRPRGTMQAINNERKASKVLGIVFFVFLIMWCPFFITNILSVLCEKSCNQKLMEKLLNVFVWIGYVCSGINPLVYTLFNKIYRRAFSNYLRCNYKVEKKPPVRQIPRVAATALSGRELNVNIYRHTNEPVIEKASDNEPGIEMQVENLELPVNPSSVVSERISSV

[4] = target: T3, human gene recombinant 5-HT7 receptor expressed in CHO cells (Homo sapiens, UniProt P34969); test: Binding affinity for the 5-HT7 serotonin receptor ([3H]LSD radioligand)
T3 construct: expressed in transfected cells; host or cells: CHO cells (membrane preparation)
T3 sequence (P34969 whole entry): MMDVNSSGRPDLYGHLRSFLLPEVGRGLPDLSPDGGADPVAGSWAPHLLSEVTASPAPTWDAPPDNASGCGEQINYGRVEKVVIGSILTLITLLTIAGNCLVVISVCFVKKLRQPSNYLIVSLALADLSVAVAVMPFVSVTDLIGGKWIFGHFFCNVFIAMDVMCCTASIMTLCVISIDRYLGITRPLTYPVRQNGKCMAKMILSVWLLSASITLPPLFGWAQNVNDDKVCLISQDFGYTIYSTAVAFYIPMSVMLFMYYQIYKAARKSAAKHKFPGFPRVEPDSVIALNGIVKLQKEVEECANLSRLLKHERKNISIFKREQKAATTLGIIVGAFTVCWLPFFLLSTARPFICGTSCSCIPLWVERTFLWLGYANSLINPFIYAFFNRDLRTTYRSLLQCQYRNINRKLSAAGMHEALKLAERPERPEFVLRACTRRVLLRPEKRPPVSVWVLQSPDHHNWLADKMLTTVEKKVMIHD
Description: In this example, the human gene recombinant 5-HT7 receptor expressed in CHO cells was used. 1 nM [^3H]LSD, 5-HT7 receptor membrane (15 μg/well), a test drug, 10 mM MgCl2, 50 mM Tris-HCl buffer (pH 7.4) containing 0.1 mM EDTA, etc. were added to a vessel until the final volume reached 0.25 ml. The test drug was used at various concentrations. The mixture was cultured at 25° C. for 90 min. The culture was rapidly filtered through a Whatman GF/C glass fiber filter, which had been previously wetted with 0.3% polyethyleneimine using a Brandel harvester, to quench the reaction. The reaction mixture was washed with cold 50 mM Tris-HCl buffer. The filter was covered with MeltiLex, sealed in a sample bag, and dried in an oven. Counting was performed using MicroBeta (Wallac) and nonspecific binding was measured in the presence of […]. The K value of the test drug was obtained from nonlinear regression analysis (GraphPad Prism Program, San Diego, USA) of isotherms obtained by repeatedly performing the experiment on the drug at 10-11 stage concentrations in two test tubes (each twice).
The % inhibition values of the inventive compounds having different Y structures at a concentration of 10 μM against the 5-HT7 serotonin receptor were measured. Further, the binding affinity (Ki) values of the inventive compounds having different Y structures at a concentration of 10 μM for the 5-HT7 serotonin receptor were measured.

5-HT6, sequence (P50406 whole entry, species assumed): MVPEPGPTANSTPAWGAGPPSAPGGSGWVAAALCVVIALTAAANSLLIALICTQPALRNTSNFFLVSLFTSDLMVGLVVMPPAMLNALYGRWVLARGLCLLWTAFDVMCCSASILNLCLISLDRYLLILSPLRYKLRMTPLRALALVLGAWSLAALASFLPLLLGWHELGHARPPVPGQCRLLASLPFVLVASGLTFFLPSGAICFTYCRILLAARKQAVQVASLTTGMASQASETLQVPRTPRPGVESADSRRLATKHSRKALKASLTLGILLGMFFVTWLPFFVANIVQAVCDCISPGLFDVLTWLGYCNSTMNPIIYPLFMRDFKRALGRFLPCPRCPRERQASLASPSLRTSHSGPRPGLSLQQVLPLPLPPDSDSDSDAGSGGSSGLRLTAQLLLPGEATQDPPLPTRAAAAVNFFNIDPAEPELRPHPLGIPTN

Row | inhibition at 10 µM [1] [%] | inhibition at 10 µM [2] [%] | Ki [4] [nM] | inhibition at 10 µM [4] [%] | Ki [1] [nM] | Compound | inhibition at 10 µM [3] [%] | Ki [3] [nM]
1 | 13.8 | 25.4 | 1070 | 64.6 | – | CC(=O)N1CCN(CCCCC(=O)n2c3ccccc3c3ccccc32)CC1 [Example 2.27, 5-(4-Acetylpiperazin-1-yl)-1-(9H-carbazol-9-yl)pentan-1-one hydrochloride] | 6.6 | –
2 | 95.5 | 103 | 31 | 94.4 | – | Oc1ccccc1N1CCN(CCCCCn2c3ccccc3c3ccccc32)CC1 [Example 2.52, 2-(4-(5-(9H-carbazol-9-yl)pentyl)piperazin-1-yl)phenol] | – | –
3 | 35 | 6.2 | 1480 | 63.1 | – | CC(=O)N1CCN(CCCCCCn2c3ccccc3c3ccccc32)CC1 [Example 2.45, 1-(4-(6-(9H-carbazol-9-yl)hexyl)piperazin-1-yl)ethanone] | – | –
4 | 55.5 | – | 205 | 94.4 | 1430 | c1ccc(C2CCN(CCCCn3c4ccccc4c4ccccc43)CC2)cc1 [Example 2.54, 9-(4-(4-Phenylpiperidin-1-yl)butyl)-9H-carbazole] | – | –
5 | 97.8 | – | 232 | 86.8 | 142 | c1ccc(CC2CCN(CCCCCCn3c4ccccc4c4ccccc43)CC2)cc1 [Example 2.44, 9-(6-(4-Benzylpiperidin-1-yl)hexyl)-9H-carbazole] | – | –
6 | 96.1 | – | 178 | 94.1 | 123 | c1ccc(C2CCN(CCCCCn3c4ccccc4c4ccccc43)CC2)cc1 [Example 2.50, 9-(5-(4-Phenylpiperidin-1-yl)pentyl)-9H-carbazole] | – | –
7 | 78.4 | 15.9 | – | 40.4 | – | CN1CCN(CCCCC(=O)n2c3ccccc3c3ccccc32)CC1 [Example 2.28, 1-(9H-carbazol-9-yl)-5-(4-methylpiperazin-1-yl)pentan-1-one hydrochloride] | – | –
8 | 85.1 | 105 | 145 | 85.7 | – | COc1ccccc1N1CCN(CCCCCCn2c3ccccc3c3ccccc32)CC1 [Example 2.49, 9-(6-(4-(2-Methoxyphenyl)piperazin-1-yl)hexyl)-9H-carbazole] | – | –
9 | 15.1 | 64.9 | 404 | 88.7 | – | c1ccc(CN2CCN(CCCn3c4ccccc4c4ccccc43)CC2)cc1 [Example 2.58, 9-(3-(4-Benzylpiperazin-1-yl)propyl)-9H-carbazole] | – | –
10 | 77.5 | 62 | 602 | 86 | – | c1ccc(CN2CCN(CCCCCCn3c4ccccc4c4ccccc43)CC2)cc1 [Example 2.47, 9-(6-(4-Benzylpiperazin-1-yl)hexyl)-9H-carbazole] | – | –
11 | 75.5 | 101 | 65 | 91.5 | – | COc1ccccc1N1CCN(CCCCCn2c3ccccc3c3ccccc32)CC1 [Example 2.53, 9-(5-(4-(2-Methoxyphenyl)piperazin-1-yl)pentyl)-9H-carbazole] | – | –
12 | 65.1 | 74.9 | 233 | 86.8 | – | c1ccc(CN2CCN(CCCCCn3c4ccccc4c4ccccc43)CC2)cc1 [Example 2.51, 9-(5-(4-Benzylpiperazin-1-yl)pentyl)-9H-carbazole] | – | –
13 | 82.2 | 19.3 | – | 49.4 | – | CN1CCN(CCCCCCn2c3ccccc3c3ccccc32)CC1 [Example 2.46, 9-(6-(4-Methylpiperazin-1-yl)hexyl)-9H-carbazole] | – | –
14 | 32.9 | – | 353 | 91.1 | – | c1ccc(C2CCN(CCCn3c4ccccc4c4ccccc43)CC2)cc1 [Example 2.57, 9-(3-(4-Phenylpiperidin-1-yl)propyl)-9H-carbazole] | – | –
15 | 56.3 | 104 | 64 | 92.5 | – | COc1ccccc1N1CCN(CCCCn2c3ccccc3c3ccccc32)CC1 [Example 2.56, 9-(4-(4-(2-Methoxyphenyl)piperazin-1-yl)butyl)-9H-carbazole] | – | –
16 | 21.7 | 105 | 96 | 94.7 | – | Oc1ccccc1N1CCN(CCCn2c3ccccc3c3ccccc32)CC1 [Example 2.59, 2-(4-(3-(9H-carbazol-9-yl)propyl)piperazin-1-yl)phenol] | – | –
17 | 12.2 | 103 | 155 | 90.7 | – | COc1ccccc1N1CCN(CCCn2c3ccccc3c3ccccc32)CC1 [Example 2.60, 9-(3-(4-(2-Methoxyphenyl)piperazin-1-yl)propyl)-9H-carbazole] | – | –
18 | 94.9 | – | 212 | 89.9 | 169 | c1ccc(C2CCN(CCCCCCn3c4ccccc4c4ccccc43)CC2)cc1 [Example 2.43, 9-(6-(4-Phenylpiperidin-1-yl)hexyl)-9H-carbazole] | – | –
19 | 16.1 | 101 | 50 | 97 | – | O=C(CCCN1CCN(c2ccccc2O)CC1)n1c2ccccc2c2ccccc21 [Example 2.33, 1-(9H-carbazol-9-yl)-4-(4-(2-hydroxyphenyl)piperazin-1-yl)butan-1-one] | – | –
20 | 14.7 | 69.4 | 404 | 90.8 | – | O=C(CCCN1CCN(Cc2ccccc2)CC1)n1c2ccccc2c2ccccc21 [Example 2.32, 4-(4-Benzylpiperazin-1-yl)-1-(9H-carbazol-9-yl)butan-1-one hydrochloride] | – | –
21 | 96.9 | 105 | 89 | 90.5 | – | Oc1ccccc1N1CCN(CCCCCCn2c3ccccc3c3ccccc32)CC1 [Example 2.48, 2-(4-(6-(9H-carbazol-9-yl)hexyl)piperazin-1-yl)phenol] | – | –

Row | Compound | inhibition at 10 µM [1] [%] | inhibition at 10 µM [2] [%] | Ki [4] [nM] | inhibition at 10 µM [4] [%] | Ki [1] [nM] | inhibition at 10 µM [3] [%] | Ki [3] [nM]
22 | O=C(CCCCN1CCC(c2ccccc2)CC1)n1c2ccccc2c2ccccc21 [Example 2.25, 1-(9H-carbazol-9-yl)-5-(4-phenylpiperidin-1-yl)pentan-1-one hydrochloride] | 67 | – | 153 | 96 | 1500 | 53.2 | 905
23 | O=C(CCCCN1CCC(Cc2ccccc2)CC1)n1c2ccccc2c2ccccc21 [Example 2.26, 5-(4-Benzylpiperidin-1-yl)-1-(9H-carbazol-9-yl)pentan-1-one hydrochloride] | 93.4 | – | 312 | 97.4 | 302 | 43.1 | –
24 | O=C(CCCCCN1CCN(Cc2ccccc2)CC1)n1c2ccccc2c2ccccc21 [Example 2.13, 6-(4-Benzylpiperazin-1-yl)-1-(9H-carbazol-9-yl)hexan-1-one hydrochloride] | 57.9 | 76.8 | 127 | 94.8 | – | 72.3 | –
25 | O=C(CCCCN1CCN(c2ccccc2O)CC1)n1c2ccccc2c2ccccc21 [Example 2.30, 1-(9H-carbazol-9-yl)-5-(4-(2-hydroxyphenyl)piperazin-1-yl)pentan-1-one hydrochloride] | 62.6 | 102 | 86 | 98.7 | – | – | –
